From paper PMC3364120 (British Journal of Cancer, 2012)
Like-named read-outs stand apart in the source and are kept apart here.

Legend:
hOCT-1 = details: 0.5 mM NSAID; transfected S2 cells expressing hOCT-1; ref Khamdang et al, 2002; cited from earlier work
OCT-1 [1] = biological target: T1, OCT-1 (Homo sapiens, UniProt O15245); assay: OCT-1 activity; format: cell-based
T1 sequence (O15245 1-554): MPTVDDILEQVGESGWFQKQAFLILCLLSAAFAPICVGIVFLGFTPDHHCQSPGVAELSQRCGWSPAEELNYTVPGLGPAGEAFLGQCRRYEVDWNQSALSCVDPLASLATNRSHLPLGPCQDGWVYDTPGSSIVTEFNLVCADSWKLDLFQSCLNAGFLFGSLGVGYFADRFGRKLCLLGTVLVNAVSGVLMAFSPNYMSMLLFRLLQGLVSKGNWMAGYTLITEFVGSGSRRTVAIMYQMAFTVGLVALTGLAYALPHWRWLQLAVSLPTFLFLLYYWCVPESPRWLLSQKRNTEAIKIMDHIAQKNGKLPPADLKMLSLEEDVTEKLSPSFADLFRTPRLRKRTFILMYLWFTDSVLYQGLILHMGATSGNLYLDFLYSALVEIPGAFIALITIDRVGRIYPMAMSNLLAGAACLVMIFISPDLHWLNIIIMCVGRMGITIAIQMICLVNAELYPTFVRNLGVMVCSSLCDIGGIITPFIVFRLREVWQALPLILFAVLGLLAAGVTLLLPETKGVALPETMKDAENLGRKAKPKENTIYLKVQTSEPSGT

KU812 cells = assay: Trypan blue exclusion assay, viable cell number, KU812; format: cell-based, human; details: for number of viable cells: 72 hours
K562 cells = assay: Trypan blue exclusion assay, viable cell number, K562; format: cell-based, human; details: for number of viable cells: 72 hours
OCT-1 mRNA [2] = assay: RQ-PCR for OCT-1 mRNA levels, K562; format: cell-based, human; details: 2-hour incubation (data not shown)
OCT-1 [3] = biological target: T1, OCT-1; assay: OCT-1 activity; format: cell-based; details: K562; for change in OA / imatinib uptake via OCT-1: NSAID at concentration of Supplementary Table 1, 2 h
OCT-1 mRNA [4] = assay: RQ-PCR for OCT-1 mRNA levels, KU812; format: cell-based, human; details: 2-hour incubation (data not shown)
OCT-1 [5] = biological target: T1, OCT-1; assay: OCT-1 activity; format: cell-based; details: MNCs from normal individuals
OCT-1 [6] = biological target: T1, OCT-1; assay: OCT-1 activity; format: cell-based; details: KU812
[7] = ref Siu et al, 2000; Juhlin et al, 2004; Bramlage and Goldis, 2008; cited from earlier work
[8] = tested on: chronic myeloid leukaemia; details: imatinib 600 mg per day, ref White et al, 2007b, cited from earlier work
[9] = tested on: chronic myeloid leukaemia; details: 7-year update of IRIS; ref Hughes et al, 2010; cited from earlier work

## CC1=C(CC(=O)O)c2cc(F)ccc2/C1=C\c1ccc([S+](C)[O-])cc1 (centres unmarked) [sulindac]
hOCT-1
  effect on OCT-1-mediated TEA uptake: significantly inhibit

## CC(C)Cc1ccc(C(C)C(=O)O)cc1 (centres unmarked) [ibuprofen]
OCT-1 [1]; CP-CML MNCs, 12 cases, 145 μM ibuprofen
  reduction in OA: 41%
OCT-1 [1]; CP-CML MNCs, n=12, 145 μM ibuprofen
  range of OA after treatment: 1.53–7.85 ng per 200 000 cells
OCT-1 [1]; CP-CML MNCs, n=12, 145 μM ibuprofen, 7.53±0.82 before
  average OA after treatment: 4.30±0.52 ng per 200 000 cells
KU812 cells; 145 μM ibuprofen + 0.1 μM imatinib
  number of viable cells: 7.23±0.78 × 10^5 ml^−1
hOCT-1
  effect on OCT-1-mediated TEA uptake: significantly inhibit
K562 cells; 145 μM ibuprofen + 0.5 μM imatinib
  number of viable cells: 8.16±1.01 × 10^5 ml^−1
OCT-1 mRNA [2]
  change in level of OCT-1 mRNA: no significant change
OCT-1 [3]; 145 μM ibuprofen, 2 h
  OA, % of vehicle control: 48%
OCT-1 mRNA [4]
  change in level of OCT-1 mRNA: no significant change
OCT-1 [5]; n=6, ibuprofen
  decrease in OA: 50%
  range of OA post treatment: 1.41–2.82 ng per 200 000 cells
OCT-1 [5]; n=6, ibuprofen, 3.70±0.45 before
  OA post treatment: 1.83±0.26 ng per 200 000 cells
OCT-1 [6]; 145 μM ibuprofen, 2 h
  OA, % of vehicle control: 59%

## O=C(O)Cc1ccccc1Nc1c(Cl)cccc1Cl [diclofenac]
OCT-1 [1]; 15 of 29 Q1 cases, 10 μM diclofenac
  cases moved from Q1 to a higher OA quartile group: 51.7%
OCT-1 [1]; CML MNCs with basal OA <4 ng per 200 000 cells (Q1), n=29, 10 μM diclofenac
  percentage of Q1 patients' samples in which OA was increased: 93%
OCT-1 [1]; patients with basal OA >4 ng per 200 000 cells, n=21, 10 μM diclofenac, 5.49 without, not significant (P=0.714)
  median OA in the presence of diclofenac: 5.92 ng per 200 000cells
KU812 cells; 10 μM diclofenac + 0.05 μM imatinib
  number of viable cells: 5.40±0.34 × 10^5 ml^−1
KU812 cells; diclofenac alone, no imatinib
  change in cell viability: no significant change
hOCT-1
  effect on OCT-1-mediated TEA uptake: significantly inhibit
[7]
  clinically achievable total plasma concentration: 10 µM
K562 cells; 10 μM diclofenac + […] imatinib
  number of viable cells: 7.82±0.56 × 10^5 ml^−1
K562 cells; diclofenac alone, no imatinib
  change in cell viability: no significant change
OCT-1 mRNA [2]
  change in level of OCT-1 mRNA: no significant change
OCT-1 mRNA [4]
  change in level of OCT-1 mRNA: no significant change
OCT-1 [5]; n=10, diclofenac (data not shown)
  change in OA: did not result in a significant change

## COc1ccc2c(c1)c(CC(=O)O)c(C)n2C(=O)c1ccc(Cl)cc1 [indomethacin]
hOCT-1
  effect on OCT-1-mediated TEA uptake: significantly inhibit

## Cc1ccc(NC(=O)c2ccc(CN3CCN(C)CC3)cc2)cc1Nc1nccc(-c2cccnc2)n1 [imatinib]
KU812 cells; 0.05 μM imatinib alone
  number of viable cells: 8.40±0.74 × 10^5 ml^−1
KU812 cells; 0.1 μM imatinib alone
  number of viable cells: 4.97±0.47 × 10^5 ml^−1
[8]; patients with high OA
  percentage of patients achieving major molecular response (MMR) by 24 months: 85%
[8]; patients with low OA
  percentage of patients achieving major molecular response (MMR) by 24 months: 45%
K562 cells; 0.5 μM imatinib alone
  number of viable cells: 4.88±0.96 × 10^5 ml^−1
[9]
  overall event-free survival: 81%
  transformation-free survival (to accelerated phase/blast crisis): 93%

## CS(=O)(=O)c1ccc(C2=C(c3ccccc3)C(=O)OC2)cc1 [rofecoxib]
OCT-1 [3]
  change in OA / imatinib uptake via OCT-1: no significant impact
OCT-1 [6]
  change in imatinib uptake via OCT-1: no significant impact

## Cc1ccc(-c2cc(C(F)(F)F)nn2-c2ccc(S(N)(=O)=O)cc2)cc1 [celecoxib]
OCT-1 [3]
  change in OA / imatinib uptake via OCT-1: no significant impact
OCT-1 [6]
  change in imatinib uptake via OCT-1: no significant impact
